Test results reported in patent US7462600B2, “Macrolides” (Pfizer Inc, priority 2004, dated 2008).
Values after ≈ are worked out from the molar mass of the structure shown. Read-outs that look alike come from different tables or passages of the source.

Assays:
Format in all cases: cell-based
[1] = test system: Haemophilus influenzae 1218; experiment: MIC, microtiter broth dilution (NCCLS M100-S14), H. influenzae 1218 (susceptible)
Summary of the method: (§1)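 NCCLS M100-S14 rules govern how the microdilution MICs are interpreted. Each compound starts as a 40 mg/ml solution in DMSO before dilution.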

[2] = test system: Streptococcus pneumoniae 1016; experiment: MIC, microtiter broth dilution (NCCLS M100-S14), S. pneumoniae 1016 (susceptible)
Summary of the method: as §1

[3] = test system: Streptococcus pyogenes 1079; experiment: MIC, microtiter broth dilution (NCCLS M100-S14), S. pyogenes 1079 (ermB)
Summary of the method: as §1

[4] = test system: Streptococcus pneumoniae 1095; conditions: microtiter broth dilution
Summary of the method: as §1

[5] = test system: Streptococcus pneumoniae 1175; conditions: microtiter broth dilution
Summary of the method: as §1

[6] = H. influenzae 1218 (susceptible)
[7] = S. pneumoniae 1016 (susceptible)

Row | SMILES | MIC H. influenzae 1218 ([1]; Haemophilus influenzae 1218) [µg/mL] | MIC S. pneumo. 1016 ([2]; Streptococcus pneumoniae 1016) [µg/mL] | MIC S. pyogenes 1079 ([3]; Streptococcus pyogenes 1079) [µg/mL] | MIC S. pneumo. 1095 ([4]; Streptococcus pneumoniae 1095) [µg/mL] | MIC S. pneumo. 1175 ([5]; Streptococcus pneumoniae 1175) [µg/mL] | MIC H. influenzae 1218 [1, 6] [µg/mL] | MIC S. pneumo. 1016 [2, 7] [µg/mL] | MIC S. pyogenes 1079 ([3]; S. pyogenes 1079 (ermB)) [µg/mL] | MIC S. pneumo. 1095 ([4]; S. pneumoniae 1095 (ermB)) [µg/mL] | MIC S. pneumo. 1175 ([5]; S. pneumoniae 1175 (mefA)) [µg/mL]
1 | CCC1OC(=O)C(C)C(=O)C(C)C(OC2OC(C)CC(N(C)C)C2O)C(C)(OC)CC(C)C(=O)C(C)C2N(CC3CN(C(=O)c4ccc5cnccc5n4)C3)C(=O)OC12C.O=CO (stereo not shown) [4.41] | 2 | <0.06 | >64.00 | 0.25 | <0.06 |  |  |  |  | 
2 | CCC1OC(=O)C(C)C(=O)C(C)C(OC2OC(C)CC(N(C)C)C2O)C(C)(OC)CC(C)C(=O)C(C)C2N(CC3CN(Cc4cnn5ccccc45)C3)C(=O)OC12C.O=CO (stereo not shown) [4.42] | 0.12 | <0.06 | >64.00 | 0.5 | <0.06 |  |  |  |  | 
3 | CCC1OC(=O)C(C)C(=O)C(C)C(OC2OC(C)CC(N(C)C)C2O)C(C)(OC)CC(C)C(=O)C(C)C2N(CC3CN(Cc4n[nH]c5ncccc45)C3)C(=O)OC12C.O=CO (stereo not shown) [4.43] | 0.25 | <0.06 | >64.00 | 0.12 | 1 |  |  |  |  | 
4 | CCC1OC(=O)C(C)C(=O)C(C)C(OC2OC(C)CC(N(C)C)C2O)C(C)(OC)CC(C)C(=O)C(C)C2N(CC3CN(C(=O)c4ccnc5nc[nH]c45)C3)C(=O)OC12C.O=CO (stereo not shown) [4.45] | 16 | <0.06 | >64.00 | >64.00 | 4 |  |  |  |  | 
5 | CCC1OC(=O)C(C)C(=O)C(C)C(OC2OC(C)CC(N(C)C)C2O)C(C)(OC)CC(C)C(=O)C(C)C2N(CC3CN(C(=O)c4cccc5ncoc45)C3)C(=O)OC12C.O=CO (stereo not shown) [4.46] | 1 | <0.06 | 64 | 0.5 | <0.06 |  |  |  |  | 
6 | CCC1OC(=O)C(C)C(=O)C(C)C(OC2OC(C)CC(N(C)C)C2O)C(C)(OC)CC(C)C(=O)C(C)C2N(CC3CN(C(=O)c4cncc5ccccc45)C3)C(=O)OC12C.O=CO (stereo not shown) [4.47] | 0.75 | <0.06 | >64.00 | 0.19 | 0.12 |  |  |  |  | 
7 | CC[C@H]1OC(=O)[C@H](C)C(=O)[C@H](C)[C@@H](O[C@@H]2O[C@H](C)C[C@H](N(C)C)[C@H]2O)[C@](C)(OC)C[C@@H](C)C(=O)[C@H](C)[C@H]2N(CC3(C)CN(Cc4ccc5ncccc5c4)C3)C(=O)O[C@]12C [6.01] | 1 (≈ 1.19 µM) | <0.06 | >64.00 | 0.5 (≈ 0.597 µM) | 0.5 (≈ 0.597 µM) |  |  |  |  | 
8 | CC[C@H]1OC(=O)[C@H](C)C(=O)[C@H](C)[C@@H](O[C@@H]2O[C@H](C)C[C@H](N(C)C)[C@H]2O)[C@](C)(OC)C[C@@H](C)C(=O)[C@H](C)[C@H]2N(CC3(C)CN(Cc4cccc5ncccc45)C3)C(=O)O[C@]12C [6.02] | 2 (≈ 2.39 µM) | <0.06 | 32 (≈ 38.2 µM) | <0.06 | 0.25 (≈ 0.299 µM) |  |  |  |  | 
9 | CC[C@H]1OC(=O)[C@H](C)C(=O)[C@H](C)[C@@H](O[C@@H]2O[C@H](C)C[C@H](N(C)C)[C@H]2O)[C@](C)(OC)C[C@@H](C)C(=O)[C@H](C)[C@H]2N(CC3(C)CN(Cc4c[nH]c5ncccc45)C3)C(=O)O[C@]12C [6.03] | 0.5 (≈ 0.605 µM) | <0.06 | 16 (≈ 19.4 µM) | <0.06 | 0.12 (≈ 0.145 µM) |  |  |  |  | 
10 | CC[C@H]1OC(=O)[C@H](C)C(=O)[C@H](C)[C@@H](O[C@@H]2O[C@H](C)C[C@H](N(C)C)[C@H]2O)[C@](C)(OC)C[C@@H](C)C(=O)[C@H](C)[C@H]2N(CC3(C)CN(Cc4ccc5nccnc5c4)C3)C(=O)O[C@]12C [6.04] | 1 (≈ 1.19 µM) | <0.06 | >64.00 | 0.25 (≈ 0.298 µM) | 0.25 (≈ 0.298 µM) |  |  |  |  | 
11 | CC[C@H]1OC(=O)[C@H](C)C(=O)[C@H](C)[C@@H](O[C@@H]2O[C@H](C)C[C@H](N(C)C)[C@H]2O)[C@](C)(OC)C[C@@H](C)C(=O)[C@H](C)[C@H]2N(CC3(C)CN(Cc4cccc5nccnc45)C3)C(=O)O[C@]12C [6.05] | 1 (≈ 1.19 µM) | <0.06 | >64.00 | <0.06 | 0.12 (≈ 0.143 µM) |  |  |  |  | 
12 | CC[C@H]1OC(=O)[C@H](C)C(=O)[C@H](C)[C@@H](O[C@@H]2O[C@H](C)C[C@H](N(C)C)[C@H]2O)[C@](C)(OC)C[C@@H](C)C(=O)[C@H](C)[C@H]2N(CC3(C)CN(Cc4ccc5cccnc5c4)C3)C(=O)O[C@]12C [6.06] | 1 (≈ 1.19 µM) | <0.06 | >64.00 | 0.5 (≈ 0.597 µM) | 0.5 (≈ 0.597 µM) |  |  |  |  | 
13 | CC[C@H]1OC(=O)[C@H](C)C(=O)[C@H](C)[C@@H](O[C@@H]2O[C@H](C)C[C@H](N(C)C)[C@H]2O)[C@](C)(OC)C[C@@H](C)C(=O)[C@H](C)[C@H]2N(CC3(C)CN(Cc4cnc5ccccc5n4)C3)C(=O)O[C@]12C [6.07] | 4 (≈ 4.77 µM) | <0.06 | >64.00 | 1 (≈ 1.19 µM) | 0.5 (≈ 0.597 µM) |  |  |  |  | 
14 | CC[C@H]1OC(=O)[C@H](C)C(=O)[C@H](C)[C@@H](O[C@@H]2O[C@H](C)C[C@H](N(C)C)[C@H]2O)[C@](C)(OC)C[C@@H](C)C(=O)[C@H](C)[C@H]2N(CC3(C)CN(Cc4c[nH]c5ccc(F)cc45)C3)C(=O)O[C@]12C [6.08] | 0.5 (≈ 0.593 µM) | <0.06 | 16 (≈ 19 µM) | <0.06 | 0.25 (≈ 0.297 µM) |  |  |  |  | 
15 | CC[C@H]1OC(=O)[C@H](C)C(=O)[C@H](C)[C@@H](O[C@@H]2O[C@H](C)C[C@H](N(C)C)[C@H]2O)[C@](C)(OC)C[C@@H](C)C(=O)[C@H](C)[C@H]2N(CC3(C)CN(Cc4c[nH]nc4-c4ccccc4)C3)C(=O)O[C@]12C [6.09] | 0.5 (≈ 0.587 µM) | <0.06 | >64.00 | <0.06 | 0.25 (≈ 0.293 µM) |  |  |  |  | 
16 | CC[C@H]1OC(=O)[C@H](C)C(=O)[C@H](C)[C@@H](O[C@@H]2O[C@H](C)C[C@H](N(C)C)[C@H]2O)[C@](C)(OC)C[C@@H](C)C(=O)[C@H](C)[C@H]2N(CC3(C)CN(Cc4ccc5[nH]ccc5c4)C3)C(=O)O[C@]12C [6.10] |  |  |  |  |  | 1 (≈ 1.21 µM) | <0.06 | >64.00 | 0.25 (≈ 0.303 µM) | 0.12 (≈ 0.145 µM)
17 | CC[C@H]1OC(=O)[C@H](C)C(=O)[C@H](C)[C@@H](O[C@@H]2O[C@H](C)C[C@H](N(C)C)[C@H]2O)[C@](C)(OC)C[C@@H](C)C(=O)[C@H](C)[C@H]2N(CC3(C)CN(Cc4nc5ccccc5[nH]4)C3)C(=O)O[C@]12C.O=CO [6.11] |  |  |  |  |  | 1 | <0.06 | >64.00 | 0.25 | <0.06
